Source: ChEMBL document CHEMBL1201862, “PubChem BioAssay data set” (2004)
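Exposure lasted 48 hours, with cells grown in 96-well plates and compounds tested at five concentrations. GI50 is the concentration that inhibits growth by half.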 Activity calls are given as the source filed them. Rule as the data show it: active = GI50 up to about 1.1 µM and inactive = higher.

Tests used:
Experiment in all cases: NCI tumour cell line growth inhibition, 48 h
HOP-92 = test system: HOP-92
RPMI-8226 = test system: RPMI-8226
786-0 = test system: 786-0
HT-29 = test system: HT-29
SR = test system: SR
HL-60 = test system: HL-60
OVCAR-4 = test system: OVCAR-4
U-251 = test system: U-251
Malme-3M = test system: Malme-3M
SNB-19 = test system: SNB-19
MCF7 = test system: MCF7
UACC-62 = test system: UACC-62
PC-3 = test system: PC-3
ACHN = test system: ACHN
BT-549 = test system: BT-549
KM12 = test system: KM12
NCI-H226 = test system: NCI-H226
DU-145 = test system: DU-145
SF-295 = test system: SF-295
MOLT-4 = test system: MOLT-4
UACC-257 = test system: UACC-257
NCI/ADR-RES = test system: NCI/ADR-RES
EKVX = test system: EKVX
HCT-116 = test system: HCT-116
CAKI-1 = test system: CAKI-1
CCRF-CEM = test system: CCRF-CEM
COLO 205 = test system: COLO 205
HOP-62 = test system: HOP-62
NCI-H522 = test system: NCI-H522
UO-31 = test system: UO-31
SK-MEL-5 = test system: SK-MEL-5
A549 = test system: A549
NCI-H23 = test system: NCI-H23
OVCAR-3 = test system: OVCAR-3
SNB-75 = test system: SNB-75
SF-539 = test system: SF-539
M14 = test system: M14
K562 = test system: K562
MDA-MB-435 = test system: MDA-MB-435
SK-OV-3 = test system: SK-OV-3
SF-268 = test system: SF-268
Hs-578T = test system: Hs-578T
SK-MEL-28 = test system: SK-MEL-28
IGROV-1 = test system: IGROV-1
SW-620 = test system: SW-620
HCT-15 = test system: HCT-15
TK-10 = test system: TK-10
HCC 2998 = test system: HCC 2998
MDA-N = test system: MDA-N
SK-MEL-2 = test system: SK-MEL-2
LOX IMVI = test system: LOX IMVI
OVCAR-8 = test system: OVCAR-8
OVCAR-5 = test system: OVCAR-5
T47D = test system: T47D
SN12C = test system: SN12C
MDA-MB-231 = test system: MDA-MB-231
NCI-H460 = test system: NCI-H460
A498 = test system: A498

O=c1[nH]c2nc3ccccc3c(=O)n2/c1=C/c1ccco1
GI50 (HOP-92): > 100 µM (inactive) | GI50 (RPMI-8226): > 100 µM (inactive) | GI50 (786-0): > 100 µM (inactive) | GI50 (HT-29): > 100 µM (inactive) | GI50 (SR): > 100 µM (inactive) | GI50 (HL-60): > 100 µM (inactive) | GI50 (OVCAR-4): > 100 µM (inactive) | GI50 (U-251): > 100 µM (inactive) | GI50 (Malme-3M): > 100 µM (inactive) | GI50 (SNB-19): > 100 µM (inactive) | GI50 (MCF7): 4.2 µM (inactive) | GI50 (UACC-62): > 100 µM (inactive) | GI50 (PC-3): > 100 µM (inactive) | GI50 (ACHN): > 100 µM (inactive) | GI50 (BT-549): > 100 µM (inactive) | GI50 (KM12): > 100 µM (inactive) | GI50 (NCI-H226): > 100 µM (inactive) | GI50 (DU-145): > 100 µM (inactive) | GI50 (SF-295): > 100 µM (inactive) | GI50 (MOLT-4): > 100 µM (inactive) | GI50 (UACC-257): > 100 µM (inactive) | GI50 (NCI/ADR-RES): > 100 µM (inactive) | GI50 (EKVX): > 100 µM (inactive) | GI50 (HCT-116): > 100 µM (inactive) | GI50 (CAKI-1): > 100 µM (inactive) | GI50 (CCRF-CEM): > 100 µM (inactive) | GI50 (COLO 205): > 100 µM (inactive) | GI50 (HOP-62): > 100 µM (inactive) | GI50 (NCI-H522): > 100 µM (inactive) | GI50 (UO-31): > 100 µM (inactive) | GI50 (SK-MEL-5): > 100 µM (inactive) | GI50 (A549): > 100 µM (inactive) | GI50 (NCI-H23): > 100 µM (inactive) | GI50 (OVCAR-3): > 100 µM (inactive) | GI50 (SNB-75): > 100 µM (inactive) | GI50 (SF-539): > 100 µM (inactive) | GI50 (M14): > 100 µM (inactive) | GI50 (K562): > 100 µM (inactive) | GI50 (MDA-MB-435): > 100 µM (inactive) | GI50 (SK-OV-3): > 100 µM (inactive) | GI50 (SF-268): > 100 µM (inactive) | GI50 (Hs-578T): > 100 µM (inactive) | GI50 (SK-MEL-28): > 100 µM (inactive) | GI50 (IGROV-1): > 100 µM (inactive) | GI50 (SW-620): > 100 µM (inactive) | GI50 (HCT-15): > 100 µM | GI50 (TK-10): > 100 µM (inactive) | GI50 (HCC 2998): > 100 µM (inactive) | GI50 (MDA-N): > 100 µM (inactive) | GI50 (SK-MEL-2): > 100 µM (inactive) | GI50 (LOX IMVI): > 100 µM (inactive) | GI50 (OVCAR-8): > 100 µM (inactive) | GI50 (OVCAR-5): > 100 µM (inactive) | GI50 (T47D): 23.4 µM (inactive) | GI50 (SN12C): > 100 µM (inactive) | GI50 (MDA-MB-231): > 100 µM (inactive)

CC(=O)Nn1cnc(C(=N)C#N)c1N
GI50 (RPMI-8226): > 100 µM (inactive) | GI50 (786-0): > 100 µM (inactive) | GI50 (HT-29): > 100 µM (inactive) | GI50 (SR): > 100 µM (inactive) | GI50 (HL-60): > 100 µM (inactive) | GI50 (OVCAR-4): > 100 µM (inactive) | GI50 (U-251): > 100 µM (inactive) | GI50 (Malme-3M): > 100 µM (inactive) | GI50 (SNB-19): > 100 µM (inactive) | GI50 (NCI-H460): > 100 µM (inactive) | GI50 (MCF7): > 100 µM (inactive) | GI50 (UACC-62): > 100 µM (inactive) | GI50 (PC-3): > 100 µM (inactive) | GI50 (ACHN): > 100 µM (inactive) | GI50 (BT-549): > 100 µM (inactive) | GI50 (KM12): > 100 µM (inactive) | GI50 (NCI-H226): > 100 µM (inactive) | GI50 (DU-145): > 100 µM (inactive) | GI50 (SF-295): > 100 µM (inactive) | GI50 (MOLT-4): > 100 µM (inactive) | GI50 (UACC-257): > 100 µM (inactive) | GI50 (NCI/ADR-RES): > 100 µM (inactive) | GI50 (EKVX): > 100 µM (inactive) | GI50 (HCT-116): > 100 µM (inactive) | GI50 (CAKI-1): > 100 µM (inactive) | GI50 (CCRF-CEM): > 100 µM (inactive) | GI50 (COLO 205): > 100 µM (inactive) | GI50 (HOP-62): > 100 µM (inactive) | GI50 (NCI-H522): > 100 µM (inactive) | GI50 (UO-31): > 100 µM (inactive) | GI50 (SK-MEL-5): > 100 µM (inactive) | GI50 (A549): > 100 µM (inactive) | GI50 (NCI-H23): > 100 µM (inactive) | GI50 (OVCAR-3): > 100 µM (inactive) | GI50 (SNB-75): > 100 µM (inactive) | GI50 (SF-539): > 100 µM (inactive) | GI50 (M14): > 100 µM (inactive) | GI50 (K562): > 100 µM (inactive) | GI50 (MDA-MB-435): > 100 µM (inactive) | GI50 (SK-OV-3): > 100 µM (inactive) | GI50 (SF-268): > 100 µM (inactive) | GI50 (Hs-578T): > 100 µM (inactive) | GI50 (SK-MEL-28): > 100 µM (inactive) | GI50 (IGROV-1): > 100 µM (inactive) | GI50 (SW-620): > 100 µM (inactive) | GI50 (HCT-15): > 100 µM | GI50 (TK-10): > 100 µM (inactive) | GI50 (A498): > 100 µM (inactive) | GI50 (HCC 2998): > 100 µM (inactive) | GI50 (MDA-N): > 100 µM (inactive) | GI50 (SK-MEL-2): > 100 µM (inactive) | GI50 (LOX IMVI): > 100 µM (inactive) | GI50 (OVCAR-8): > 100 µM (inactive) | GI50 (OVCAR-5): > 100 µM (inactive) | GI50 (T47D): > 100 µM (inactive) | GI50 (SN12C): > 100 µM (inactive) | GI50 (MDA-MB-231): > 100 µM (inactive)
